# Data from article PMC12491715 (Acta Pharmaceutica Sinica. B, 2025).
# Experiments:
# hBChE [1] = biological target: T1, hBChE (Homo sapiens, UniProt P06276); test: ChE IC50 determination, method of Ellman, hBChE; assay type: biochemical
# Method: (§1) The inhibitory potencies of the compounds against the ChEs were determined using the method of Ellman following the procedure described previously. Briefly, compound stock solutions in DMSO were incubated with Ellman’s reagent and ChEs (final concentrations: 370 μmol/L Ellman’s reagent, approximately 1 nmol/L or 50 pmol/L hBChE or hAChE, respectively) in 0.1 mol/L sodium phosphate pH 8.0 for 5 min at 20 °C. For time-dependency measurements, the pre-incubation time was varied (1, 5, 15, 30 or 60 min). The reactions were started by the addition of the substrate (final concentration, 500 μmol/L butyrylthiocholine iodide or acetylthiocholine iodide for hBChE and hAChE, respectively). The final content of DMSO was always 1%. The increase in absorbance at 412 nm was monitored for 2 min using a 96-well microplate reader (Synergy HT, BioTek Instruments, VT, USA). The initial velocities in the presence (vi) and absence (v0) of the test compounds were calculated. The inhibitory potencies were expressed as the residual activities, according to Eq. (1):(1) RA = vi / v0
# (§2) For IC50 determinations, at least seven different concentrations for each compound were used. The IC50 values were obtained by plotting the residual ChE activities against the applied inhibitor concentrations, with the experimental data fitted to a four-parameter logistic function (GraphPad Prism 9.4). Tacrine and donepezil were used as positive controls.
# hAChE = hAChE (Homo sapiens, UniProt P22303); test: ChE IC50 determination, method of Ellman, hAChE; assay type: biochemical; settings: for remaining activity at 100 µM: residual activity at 100 μmol/L, after 5 min preincubation, read-out: hAChE RA±SD (residual activity)
# Method: as §1, §2
# α2 adrenoreceptors = test system: α2 adrenoreceptors; parameters: method as in PMID 1975199, PMID 16389294; settings: α2 adrenergic antagonist; cited from earlier work
# [2] = parameters: method as in PMID 1975199, PMID 16389294; settings: in humans; cited from earlier work
# hBChE [3] = biological target: T1, hBChE; test: hBChE binding kinetics: carbamoylation and decarbamoylation, initial velocity measurements; assay type: biochemical
# Method: The progress curves for the time courses of product formation for the hydrolysis of butyrylthiocholine iodide were measured on an Agilent Cary 3500 UV–VIS spectrophotometer with Compact Peltier (thermostated at 25 °C) at 412 nm using a 0.6 mL cuvette (optical path–0.5 cm). 30 mmol/L Tris buffer pH 7.0 with 1 mg/mL BSA and 0.02% NaN3 was used and all dilutions were done in glass vessels (note: dilute hBChE solutions rapidly lose activity, presumably due to adsorption to plastic, preventing meaningful decarbamoylation assays. In our hands, under the above conditions only, the diluted and stock solutions of hBChE were stable for at least a month at room temperature.). Total volume in the cuvette was always 500 μL, and enzyme solutions that gave upon dilution v0 = (dA/dt) ≈ 0.5 (for carbamoylation) and ≈ 1 for (for decarbamoylation) were used. For carbamoylation experiments, 0.5–1 μL of enzyme stock, 5 μL of compound solution, and 484 μL of buffer were preincubated for the specified time, then 10 μL of the mixture of 25 mmol/L Ellman’s reagent (DTNB) and 20 mmol/L butyrylthiocholine (large excess to prevent substrate depletion) were added, quickly mixed, and measurement started. […] The data analysis followed the literature[63]^,[98].
# [4] = test system: ICR mice icv-injected with Aβ1–42; test: Morris water maze, mice model with icv-injection of Aβ1–42; assay type: in vivo; settings: 10 mg/kg, ip; compared with compound 8
# Method: Mice model with icv-injection of Aβ1–42 The experiments were performed using ICR male mice (8–10 weeks old, weight 18–20 g), which were purchased from Shanghai Bikai Animal Breeding Factory (Shanghai, China). Animals were housed in cages (6 mice per cage) at a constant temperature of 25±2 °C, humidity of 55%±10% and a light/dark (12:12) cycle. The mice had unlimited access to food and water prior to the experiment. Specified conditions for the maintenance of mice were ensured throughout the experiments, including tree bedding (Yizheng Anlimao Biotechnology Co., Ltd., China) and lab feed (Zimao, China). For behavioural tests, mice were selected randomly, each group consisted of 6 mice. The experiments were performed between 9 am and 3 pm.
# According to the literature procedure, recombinant human hexafluoroisopropanol-pretreated Aβ1–42 from Merck Millipore (Darmstadt, Germany) was dissolved in 1% DMSO, diluted with saline to the final concentration of 2 mg/mL, and incubated for 72 h to form oligomers. […]
# Behavioural assays The Morris water maze was placed in a lighted room at 25 °C, and it was divided into four equal quadrants. […] The time spent searching for the missing platform was recorded by Xeye Aba image processing system (Beijing Zhongshi Dichuang Technology Development Co., Ltd.) and analysed by GraphPad Prism 5.
# Sequence of hAChE (P22303 32-614): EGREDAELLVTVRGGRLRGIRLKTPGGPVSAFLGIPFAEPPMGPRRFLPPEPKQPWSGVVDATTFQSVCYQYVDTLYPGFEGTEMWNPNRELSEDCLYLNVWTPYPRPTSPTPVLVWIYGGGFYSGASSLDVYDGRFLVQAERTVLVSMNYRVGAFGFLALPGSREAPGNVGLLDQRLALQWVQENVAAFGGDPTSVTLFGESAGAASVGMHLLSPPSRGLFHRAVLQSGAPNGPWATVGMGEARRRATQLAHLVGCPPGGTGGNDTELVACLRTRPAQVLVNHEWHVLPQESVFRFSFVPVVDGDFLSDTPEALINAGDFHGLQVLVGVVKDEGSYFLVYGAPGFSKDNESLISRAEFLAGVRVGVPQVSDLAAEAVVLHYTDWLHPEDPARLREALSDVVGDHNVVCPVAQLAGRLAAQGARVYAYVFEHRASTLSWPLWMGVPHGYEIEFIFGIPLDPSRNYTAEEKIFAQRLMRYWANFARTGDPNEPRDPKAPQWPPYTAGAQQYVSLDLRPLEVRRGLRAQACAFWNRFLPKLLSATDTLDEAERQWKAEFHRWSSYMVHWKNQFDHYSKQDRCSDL
# T1 sequence (P06276 29-602): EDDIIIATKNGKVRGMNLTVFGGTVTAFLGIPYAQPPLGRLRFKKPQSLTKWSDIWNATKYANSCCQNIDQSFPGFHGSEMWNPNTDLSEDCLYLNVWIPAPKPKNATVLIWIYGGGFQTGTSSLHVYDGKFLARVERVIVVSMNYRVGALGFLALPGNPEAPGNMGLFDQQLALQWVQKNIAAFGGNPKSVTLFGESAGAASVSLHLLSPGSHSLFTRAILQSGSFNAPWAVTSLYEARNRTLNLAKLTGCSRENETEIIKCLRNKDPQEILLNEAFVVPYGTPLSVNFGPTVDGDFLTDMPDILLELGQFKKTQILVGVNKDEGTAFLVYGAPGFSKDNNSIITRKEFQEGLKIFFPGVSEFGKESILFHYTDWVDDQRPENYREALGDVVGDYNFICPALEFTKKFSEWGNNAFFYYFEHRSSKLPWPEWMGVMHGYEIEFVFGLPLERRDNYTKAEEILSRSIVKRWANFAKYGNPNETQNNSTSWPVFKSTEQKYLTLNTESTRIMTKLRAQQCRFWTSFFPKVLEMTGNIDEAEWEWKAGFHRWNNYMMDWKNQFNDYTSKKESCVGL
Structure (SMILES),ChE inhibition of the leaving groups (hBChE [1]; ChEs (hBChE and hAChE)),"remaining activity at 100 µM (hBChE [1]; residual activity at 100 μmol/L, after 5 min preincubation, read-out: hBChE RA±SD (residual activity))",remaining activity at 100 µM (hAChE),potency compared to idazoxan 2 (α2 adrenoreceptors),half-life [2],"IC50 (hBChE [1]; after 5 min preincubation, read-out: hBChE IC50±SD)",hBChE time-dependency observed: Yes/No (hBChE [1]; pre-incubation time varied),hAChE time-dependency observed: Yes/No (hAChE; pre-incubation time varied),Ki (hBChE [3]),"kcarb, carbamoylation (hBChE [3]; 25 °C)","kdecarb, decarbamoylation (hBChE [3]; 25 °C)","t1/2, decarbamoylation (hBChE [3]; 25 °C)","ΔG25°C‡, carbamoylation (hBChE [3]; 25 °C)",effectiveness in MWM test [4]
"CCC1(c2cnc[nH]2)Cc2ccccc2C1 [Compound 5, 4-(2-ethylindan-2-yl)-1H-imidazole, reference compound]",ineffective,82%,82%,approx. 100 fold,1.7 to 2 h,–,–,–,–,–,–,–,–,–
"CCN(C)C(=O)n1cnc(C2(CC)Cc3ccccc3C2)c1 [Compound 7, N-Ethyl-4-(2-ethylindan-2-yl)-N-methyl-1H-imidazole-1-carboxamide]",–,–,52 ± 3%,–,–,9.9 ± 0.9 nM,Yes,Yes,73 ± 6 nM,7.2±4.5 min^–1,0.92±0.14 ×10^–2 h^–1,75 ± 11 h,18.7 ± 0.4 kcal/mol,less effective
